Source: patent US20230331663A1, “SMALL MOLECULE NICOTINAMIDE ADENINE DINUCLEOTIDE MODULATORS” (THE CLEVELAND CLINIC FOUNDATION, priority 2020, published 2023)
“Also recorded” adds a separate entry of the source.

Tests used:
[1] = system: Human bone marrow cells from healthy volunteers; experiment: Human HSPC self renewal, methyl cellulose colony re-plating; format: cell-based; details: colonies counted after eight days and re-plated until control HSPCs exhausted
Experimental: The human bone marrow cells from healthy volunteers were grown in methyl cellulose in the presence and absence of the compound 1-17 and colony number were counted after eight days in culture and re-plated till control HSPCs were completely exhausted. A. The number of colony and B. the total cellular output.
Human bone marrow cells from healthy volunteers were grown in methyl cellulose in the presence and absence of the compound 1-17 and colony number were counted after eight days in culture and re-plated till control HSPCs were completely exhausted.

[2] = system: Total Human bone marrow, isolated CD34+ HSPCs, LTC-IC; experiment: Stem cell function, total cellular output in culture; format: cell-based
Experimental: Total Human bone marrow A, isolated CD34+ HSPCs B, and long-term culture initiating hematopoietic cells (LTC-IC) C, were grown in the presence and absence of the compound 1-17 and the total cellular output was determined. Compound 1-17 is synergistic with NAD treatment.
Total Human bone marrow, isolated CD34+ HSPCs, and long-term culture initiating hematopoietic cells (LTC-lC), were grown in the presence and absence of compound 1-17 and the total cellular output was determined.

[3] = system: undifferentiated normal human fibroblast (NHFB); experiment: Cell proliferation assay, fibroblast life span; format: cell-based
Experimental: FIGS. 4A and 4B provide graphs showing NAD protection by compound 1-17 extend life span of undifferentiated normal human fibroblast (NHFB) under in-vitro cell culture conditions. NHFB were either A. young (<8 doubling time) or B. old (>10 doublings) cell cultures were treated with indicated amount of 1-17 in complete growth media.
NHFB were either young (<8 doubling time) (FIG. 4A) or old (>10 doublings) (FIG. 4B). Cell cultures were treated with the indicated amount of 1-17 in complete growth media.

[4] = system: healthy murine bone marrow; experiment: Treatment of healthy mice, hematopoiesis; format: in vivo; details: 40 mg/kg
Experimental: The effects of CD38 inhibitor 1-17 and its analogues on hematopoiesis of healthy murine bone marrow were tested. […] Experiments were conducted to determine whether treatment with compound 1-17 has impact on blood counts and NAD+ levels in cells. The inventors treated 9 mice which were sacrificed at 2, 5 and 12 week and blood counts, marrow morphology and cellularity and bone marrow colony formation per 10^6 cell were determined in colony forming assays.

[5] = target: T1, recombinant human CD38 full length protein (Homo sapiens, UniProt P28907); experiment: β-NAD+ degradation assay (HPLC, C18); format: biochemical; details: purified full length wild type recombinant CD38 incubated with NAD+
T1 construct: The recombinant human CD38 full length protein UniProtKB - P28907 (CD38_HUMAN); His-tag (inferred from the pET28a vector and IMAC purification); made in house
T1 sequence (P28907 1-300): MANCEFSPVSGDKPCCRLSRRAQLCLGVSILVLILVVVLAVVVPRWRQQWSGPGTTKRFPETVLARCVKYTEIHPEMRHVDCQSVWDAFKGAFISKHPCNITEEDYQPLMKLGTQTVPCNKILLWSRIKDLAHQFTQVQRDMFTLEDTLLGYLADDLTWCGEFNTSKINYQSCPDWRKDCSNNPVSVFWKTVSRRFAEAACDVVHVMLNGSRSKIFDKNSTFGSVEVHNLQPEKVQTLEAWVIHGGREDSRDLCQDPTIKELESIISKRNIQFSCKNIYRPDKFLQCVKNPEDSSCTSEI
Experimental: FIGS. 3A-3D provides graphs showing Compound 1-17 inhibits CD38 and protects NAD degradation in vitro. Full length wild type recombinant CD38 was expressed and purified and incubated with NAD and high-performance liquid chromatographic assay using C18 were used to quantify NAD degradation. A. chromatogram with vehicle, B. CD38 incubation for 4 hours at room temperature C.
The recombinant human CD38 full length protein UniProtKB - P28907 (CD38_HUMAN) was cloned into pET28a and purified using IMAC column followed by gel filtration on SephacrylS200. The purified protein (10 µg/ml) was incubated with varying amount of NAD+ in assay buffer ([…], 5 mM MgCl2 at pH 7.0) at 25° C. for 3 hours, reaction was stopped by heat inactivation followed by acetone precipitation of protein the supernatant was vacuum dried and dissolved in water and loaded onto reverse phase C18 column and eluted with a gradient of 0-25% of acetonitrile in water.
Full length wild type recombinant CD38 was expressed and purified and incubated with NAD+ and high-performance liquid chromatographic assay using C18 were used to quantify NAD+ degradation.

[6] = system: murine bone marrow cells from C57bl6 mice; experiment: Mouse HSPC self renewal, methyl cellulose colony re-plating; format: cell-based
Experimental: FIGS. 5A and 5B provide graphs showing Treatment of 1-17 to murine bone marrow expands the colony forming hematopoietic stem cells. The murine bone marrow cells from C57BL6 mice were grown in methyl cellulose in the presence and absence of the compound 1-17 and colony number were counted every week and re-plated. A. The number of colony and B. the total cellular output.
The murine bone marrow cells from C57bl6 mice were grown in methyl cellulose in the presence and absence of compound 1-17. Colony numbers were counted every week and re-plated.
FIG. 5 provides graphs showing that treatment with compound 1-17 increases mouse HSPC self-renewal. […] Additionally, as shown in FIG. 5B directed to total cellular output, cells also proliferate far longer than the vehicle control, maintaining population for an average of 1 to 2 passes after control.

Row | Compound | colony forming hematopoietic stem and progenitor cells (HSPCs) [1] | combination with NAD treatment ([2]; cell culture, total cellular output) | long term hematopoietic stem cells, total cellular output ([2]; total human bone marrow, CD34+ HSPCs, LTC-IC in culture) | doubling time ([3]; NHFB treated with indicated amount of compound) | life span of NHFB in culture ([3]; young (<8 doubling time) or old (>10 doublings) NHFB, complete growth media) | efficacy and tolerability of treatment dose [4] | inhibition of CD38 NAD+ degradation [5] | self-renewal of HSPCs in colony numbers and overall cell counts ([6]; mouse bone marrow in methyl cellulose, counted every week and re-plated) | passes for which population is maintained after control ([6]; total cellular output, versus vehicle control) [passes]
1 | O=C(Nc1cccc2cc(C(F)(F)F)ccc12)c1cc(CCCF)ccc1O [Compound 1-11] | expands the colony forming hematopoietic stem and progenitor cells (HSPCs) | – | – | – | – | – | – | – | –
2 | Cl.NCCc1ccc(O)c(C(=O)Nc2cccc3ccccc23)c1 [Compound 1-17, 5-(2-Aminoethyl)-2-hydroxy-N-(naphthalen-1-yl)benzamide] | expands the colony forming hematopoietic stem and progenitor cells (HSPCs) | synergies with NAD treatment | expands long term hematopoietic stem cells in cell culture | significantly increased in a dose dependent fashion | extends the life span | effective and well tolerated | inhibits CD38 and protects NAD+ degradation in vitro; also recorded: Dose dependent inhibition of CD38 | markedly increased | 1 to 2
